Measured values reported in US10316017B2, “COT modulators and methods of use thereof” (Gilead Sciences, Inc., priority 2015, dated 2019).
Where two headings read alike, the source gives them in different places.

Key:
[1] = test system: TNFα production in LPS-stimulated human monocytes; test: Cot Monocyte TNFα Cell Based Assay; conditions: Homo sapiens, Monocyte, read-out: EC50 TNF
Procedure, shortened: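 Human monocytes (5,000 cells/well) pretreated with compound for 1 hour at 37° C (0.5% DMSO), then stimulated with 50 pg/ml LPS for 4 hours. Total TNFα measured by TR-FRET after overnight antibody incubation at room temp, expressed as percent of control between unstimulated and stimulated cells.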

[2] = biological target: T1, human Cot catalytic domain (30-397 amino acids) (Homo sapiens, UniProt P41279); test: High Throughput Cot Biochemical Assay (KinEASE TR-FRET); conditions: read-out: IC50 HTRF
T1 construct: Purified recombinant human Cot catalytic domain (30-397 amino acids) was purchased from Cama Biosciences; purchased Cama Biosciences (so in the source)
T1 sequence (P41279 30-397): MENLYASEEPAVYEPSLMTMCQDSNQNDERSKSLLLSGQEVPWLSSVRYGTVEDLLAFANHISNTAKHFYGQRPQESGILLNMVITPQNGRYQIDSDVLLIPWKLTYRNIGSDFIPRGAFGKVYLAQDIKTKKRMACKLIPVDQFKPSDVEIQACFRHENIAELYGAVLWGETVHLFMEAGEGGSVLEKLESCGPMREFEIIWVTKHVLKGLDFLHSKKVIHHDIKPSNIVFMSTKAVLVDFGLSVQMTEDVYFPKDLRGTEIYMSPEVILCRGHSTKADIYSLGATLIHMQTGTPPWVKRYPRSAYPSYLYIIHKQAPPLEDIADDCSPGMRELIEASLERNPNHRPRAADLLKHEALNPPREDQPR
Procedure, shortened: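 Recombinant human Cot catalytic domain (aa 30-397), 5 nM, with 1 μM STK3 peptide and 400 μM ATP in MOPS pH 7.0 buffer with MgOAc, DTT, BSA, NP-40, glycerol, 0.1% DMSO. Phosphorylated XL665-peptide detected by Eu-[…] antibody TR-FRET.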

[3] = TNFα in LPS-stimulated human monocytes
[4] = Cot biochemical HTRF (KinEASE TR-FRET) assay
[5] = LPS-stimulated human monocytes, TNFα TR-FRET
[6] = Cot KinEASE TR-FRET, 400 μM ATP
[7] = Cot KinEASE TR-FRET (HTRF) biochemical assay, 400 μM ATP

Row | SMILES | EC50 [1, 3] | IC50 [2, 4] | EC50 [1, 5] | IC50 [2, 6] | IC50 [2, 7]
1 | [2H][C@](Nc1cc(Cl)c2ncc(C#N)c(NCC(C)(C)C)c2c1)(c1cccc(C#N)c1)c1cn(-c2cccnc2)nn1 [Example 327, (S)-8-chloro-6-(((3-cyanophenyl)(1-(pyridin-3-yl)-1H-1,2,3-triazo1-4-yl)methyl-d)amino)-4-(neopentylamino)quinoline-3-carbonitrile] | 166 nM |  |  |  | 4 nM
2 | N#Cc1cnc2c(Cl)cc(N[C@@H](c3ccc(F)cc3)c3c[nH]nn3)cc2c1NCC1CCCCO1 (stereo partly drawn) [Example 436, 8-chloro-6-(((S)-(4-fluorophenyl)(1H-1,2,3-triazol-4-yl)methyl)amino)-4-(((tetrahydro-2H-pyran-2-yl)methyl)amino)quinoline-3-carbonitrile] | 3030 nM | 1360 nM |  |  | 
3 | CCOC(=O)c1cccc([C@H](Nc2cc(Cl)c3ncc(C#N)c(NCC(C)(C)C)c3c2)c2cn(C3(C(F)(F)F)CC3)nn2)c1F [Example 1087, ethyl (S)-3-(((8-chloro-3-cyano-4-(neopentylamino)quinolin-6-yl)amino)(1-(1-(trifluoromethyl)cyclopropyl)-1H-1,2,3-triazol-4-yl)methyl)-2-fluorobenzoate] |  |  | 375 nM | 22 nM | 
4 | Cc1c(C#N)cccc1[C@H](Nc1cc(Cl)c2ncc(C#N)c(NCC(C)(C)C(F)(F)F)c2c1)c1cn(C2(C)CC2)nn1 [Example 1104, (S)-8-chloro-6-(((3-cyano-2-methylphenyl)(1-(1-methylcyclopropyl)-1H-1,2,3-triazol-4-yl)methyl)amino)-4-((3,3,3-trifluoro-2,2-dimethylpropyl)amino)quinoline-3-carbonitrile] |  |  | 53 nM | 3 nM | 
5 | CC(=O)c1cccc([C@H](Nc2cc(Cl)c3ncc(C#N)c(Nc4ccc(F)c(Cl)c4)c3c2)c2cn(C3CCN(C(C)(C)C)CC3)nn2)c1 [Compound 21] | 234 nM |  |  |  | 5 nM
6 | [2H][C@](Nc1cc(Cl)c2ncc(C#N)c(NCC(C)(C)c3ccccn3)c2c1)(c1ccc(F)cc1)c1cn(C2CC2)nn1 [Example 1016, (S)-8-chloro-6-(((1-cyclopropyl-1H-1,2,3-triazol-4-yl)(4-fluorophenyl)methyl-d)amino)-4-((2-methyl-2-(pyridin-2-yl)propyl)amino)quinoline-3-carbonitrile] |  |  | ≥ 1000 nM | 28 nM | 
7 | Cn1cc([C@H](Nc2cc(Cl)c3ncc(C#N)c(Nc4ccc(F)c(Cl)c4)c3c2)c2cccc(CN3CCCC3)c2)nn1 [Example 842, (R)-8-chloro-4-((3-chloro-4-fluorophenyl)amino)-6-(((1-methyl-1H-1,2,3-triazol-4-yl)(3-(pyrrolidin-1-ylmethyl)phenyl)methyl)amino) quinoline-3-carbonitrile] | 22100 nM | 998 nM |  |  | 
8 | CC(C)(C)CNc1c(C#N)cnc2c(Cl)cc(N[C@@H](c3cccc(C4(C#N)CC4)c3)c3cn(C45CC(C4)C5)nn3)cc12 [Example 1094, (S)-6-(((1-(bicyclo[1.1.1]pentan-1-yl)-1H-1,2,3-triazol-4-yl)(3-(1-cyanocyclopropyl)phenyl)methyl)amino)-8-chloro-4-(neopentylamino)quinoline-3-carbonitrile] |  |  | 407 nM | 10 nM | 
9 | CC(=O)N(C)c1cccc([C@H](Nc2cc(Br)c3ncc(C#N)c(NCC(C)(C)C)c3c2)c2cn(C3CC3)nn2)c1 [Example 78, (S)-N-(3-(((8-bromo-3-cyano-4-(neopentylamino)quinolin-6-yl)amino) (1-cyclopropyl-1H-1,2,3-triazol-4-yl)methyl)phenyl)-N-methylacetamide] | 436 nM |  |  |  | 5 nM
10 | CC1(Nc2c(C#N)cnc3c(Cl)cc(N[C@@H](c4ccc(Cl)cc4)c4cn(C5CCN(C(C)(C)C)CC5)nn4)cc23)CCCCC1 [Example 663, (S)-6-(((1-(1-(tert-butyl)piperidin-4-yl)-1H-1,2,3-triazol-4-yl)(4-chlorophenyl)methyl)amino)-8-chloro-4-((1-methylcyclohexyl)amino) quinoline-3-carbonitrile] | 4740 nM | 72 nM |  |  | 
11 | [2H][C@](Nc1cc(Cl)c2ncc(C#N)c(Nc3cnc(F)c(F)c3)c2c1)(c1ccccc1)c1c[nH]nn1 [Example 461, (S)-8-chloro-4-((5,6-difluoropyridin-3-yl)amino)-6-((phenyl(1H-1,2,3-triazol-4-yl)methyl-d)amino)quinoline-3-carbonitrile] | 1530 nM | 20 nM |  |  | 
12 | Cc1c([C@H](Nc2cc(C#N)c3ncc(C#N)c(NCC(C)(C)C)c3c2)c2cn(C3(C(F)(F)F)CC3)nn2)cccc1-n1ccnn1 [Example 1068, (S)-6-(((2-methyl-3-(1H-1,2,3-triazol-1-yl)phenyl)(1-(1-(trifluoromethyl)cyclopropyl)-1H-1,2,3-triazol-4-yl)methyl)amino)-4-(neopentylamino)quinoline-3,8-dicarbonitrile] |  |  | 58 nM | 3 nM | 
13 | CC(C)(C)N1CCC(n2cc([C@@H](Nc3cc(Cl)c4ncc(C#N)c(Nc5ccc(F)c(C#N)c5F)c4c3)c3ccccc3)nn2)CC1 [Example 470, (S)-6-(((1-(1-(tert-butyl)piperidin-4-yl)-1H-1,2,3-triazol-4-yl)(phenyl)methyl)amino)-8-chloro-4-((3-cyano-2,4-difluorophenyl)amino) quinoline-3-carbonitrile] | 608 nM | 13 nM |  |  | 
14 | N#Cc1cnc2c(Cl)cc(N[C@@H](c3ccc(F)cc3)c3cn(C4(C(F)(F)F)CC4)nn3)cc2c1Nc1cnc(F)c(F)c1 [Example 417, (S)-8-chloro-4-((5,6-difluoropyridin-3-yl)amino)-6-(((4-fluorophenyl)(1-(1-(trifluoromethyl)cyclopropyl)-1H-1,2,3-triazol-4-yl)methyl)amino)quinoline-3-carbonitrile] | 1930 nM | 74 nM |  |  | 

Continued, values first:

Row | EC50 [1, 3] | IC50 [2, 4] | EC50 [1, 5] | IC50 [2, 6] | IC50 [2, 7] | SMILES
15 | 6780 nM | 2250 nM |  |  |  | CC(C)(C)N1CCC(n2cc([C@@H](Nc3cc(Cl)c4ncc(C#N)c(N[C@@H]5CCCc6ccccc65)c4c3)c3ccccc3)nn2)CC1 [Example 487, 6-(((S)-(1-(1-(tert-butyl)piperidin-4-yl)-1H-1,2,3-triazol-4-yl)(phenyl)methyl)amino)-8-chloro-4-(((R)-1,2,3,4-tetrahydronaphthalen-1-yl)amino)quinoline-3-carbonitrile]
16 |  |  | 109 nM | 6 nM |  | CC(C)(C)CNc1c(C#N)cnc2c(Cl)cc(N[C@@H](c3ccc(F)cc3)c3cn(C4(C(N)=O)CC4)nn3)cc12 [Example 996, (S)-1-(4-(((8-chloro-3-cyano-4-(neopentylamino)quinolin-6-yl)amino)(4-fluorophenyl)methyl)-1H-1,2,3-triazol-1-yl)cyclopropane-1-carboxamide]
17 | 1020 nM | 17 nM |  |  |  | CC(C)n1cc([C@@H](Nc2cc(Cl)c3ncc(C#N)c(N[C@H](C)c4ccccc4)c3c2)c2ccccc2)nn1 [Example 588, 8-chloro-6-(((S)-(1-isopropyl-1H-1,2,3-triazol-4-yl)(phenyl)methyl)amino)-4-(((R)-1-phenylethyl)amino) quinoline-3-carbonitrile]
18 | > 10000 nM |  |  |  | 171 nM | [2H][C@](Nc1cc(Cl)c2ncc(C#N)c(N[C@H](CCN3CCCC3)c3ccccc3)c2c1)(c1ccc(F)cc1)c1cn(C2CC2)nn1 [Example 167, 8-chloro-6-(((1-cyclopropyl-1H-1,2,3-triazol-4-yl) (4-fluorophenyl)methyl-d)amino)-4-(((R)-1-phenyl-3-(pyrrolidin-1-yl)propyl)amino) quinoline-3-carbonitrile]
19 | 74 nM |  |  |  | 1 nM | CCN1CCC(n2cc([C@@H](Nc3cc(Cl)c4ncc(C#N)c(Nc5ccc(F)c(Cl)c5)c4c3)c3cccc(C(=O)N(C)C)c3)nn2)CC1 [Compound 41]
20 | 6970 nM | 72 nM |  |  |  | CC(C)(C)N1CCC(n2cc([C@@H](Nc3cc(Cl)c4ncc(C#N)c(Nc5ccccc5)c4c3)c3ccc(Cl)cc3)nn2)CC1 [Example 777, (S)-6-(((1-(1-(tert-butyl)piperidin-4-yl)-1H-1,2,3-triazol-4-yl)(4-chlorophenyl)methyl)amino)-8-chloro-4-(phenylamino)quinoline-3-carbonitrile]
21 | 458 nM | 14 nM |  |  |  | N#Cc1cnc2c(Cl)cc(N[C@@H](c3ccccc3)c3cn(CCCF)nn3)cc2c1Nc1ccc(F)c(Cl)c1 [Example 666, (S)-8-chloro-4-((3-chloro-4-fluorophenyl)amino)-6-(((1-(3-fluoropropyl)-1H-1,2,3-triazol-4-yl)(phenyl)methyl)amino) quinoline-3-carbonitrile]
22 | 42 nM |  |  |  | 3 nM | [2H][C@](Nc1cc(F)c2ncc(C#N)c(NC(CCC#N)c3ccccc3)c2c1)(c1cccc(C#N)c1)c1cn(C2CC2)nn1 (stereo partly drawn) [Example 254, 4-((3-cyano-1-phenylpropyl)amino)-6-(((S)-(3-cyanophenyl) (1-cyclopropyl-1H-1,2,3-triazo1-4-yl)methyl-d)amino)-8-fluoroquinoline-3-carbonitrile]
23 |  |  | 636 nM | 27 nM |  | CC[C@@H](Nc1c(C#N)cnc2c(Cl)cc(N[C@H](c3cn(C(F)(F)C(N)=O)nn3)c3ccccc3Cl)cc12)c1ccccc1 [Example 972, 2-(4-((S)-((8-chloro-3-cyano-4-(((R)-1-phenylpropyl)amino)quinolin-6-yl)amino) (2-chlorophenyl)methyl)-1H-1,2,3-triazol-1-yl)-2,2-difluoroacetamide]
